Measured values reported in patent EP4559908A1, “HETEROARYL DERIVATIVE COMPOUND AND USE THEREOF” (S2CBio Inc., priority 2022, dated 2024).
Like-named read-outs stand apart in the source and are kept apart here.

Biological target: T1, human ANO6 (variant 5) (Homo sapiens, UniProt Q4KMQ2)
T1 construct: expressed in transfected cells; host or cells: Fischer rat thyroid (FRT) cells
T1 sequence (Q4KMQ2 1-931 isoform Q4KMQ2-2): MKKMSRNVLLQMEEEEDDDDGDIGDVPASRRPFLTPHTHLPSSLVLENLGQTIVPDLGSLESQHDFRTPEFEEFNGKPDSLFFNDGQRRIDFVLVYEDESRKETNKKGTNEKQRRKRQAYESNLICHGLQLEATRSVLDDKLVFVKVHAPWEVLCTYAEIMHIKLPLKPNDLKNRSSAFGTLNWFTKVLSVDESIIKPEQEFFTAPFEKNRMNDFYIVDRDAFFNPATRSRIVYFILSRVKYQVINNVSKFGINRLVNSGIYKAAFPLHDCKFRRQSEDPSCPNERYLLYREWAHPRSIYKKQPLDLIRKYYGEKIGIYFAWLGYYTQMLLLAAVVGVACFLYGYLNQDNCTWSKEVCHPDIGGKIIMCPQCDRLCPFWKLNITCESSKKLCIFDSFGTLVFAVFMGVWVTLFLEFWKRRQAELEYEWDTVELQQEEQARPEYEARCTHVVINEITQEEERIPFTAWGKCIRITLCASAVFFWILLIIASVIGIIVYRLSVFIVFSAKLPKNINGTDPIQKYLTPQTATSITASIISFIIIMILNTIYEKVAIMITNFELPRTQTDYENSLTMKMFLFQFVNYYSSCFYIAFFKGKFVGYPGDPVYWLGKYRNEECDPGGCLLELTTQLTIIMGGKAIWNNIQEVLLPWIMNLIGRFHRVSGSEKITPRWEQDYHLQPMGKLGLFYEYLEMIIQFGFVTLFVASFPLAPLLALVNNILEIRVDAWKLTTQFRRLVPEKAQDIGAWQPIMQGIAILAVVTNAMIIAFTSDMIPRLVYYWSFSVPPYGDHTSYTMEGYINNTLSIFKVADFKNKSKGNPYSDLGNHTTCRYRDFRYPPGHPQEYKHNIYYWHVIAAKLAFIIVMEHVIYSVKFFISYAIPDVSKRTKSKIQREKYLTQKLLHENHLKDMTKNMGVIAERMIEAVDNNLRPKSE
Test: Lact C2 assay (measuring phosphatidylserine externalization scramblase function)
Type: cell-based
Details: FRT cells expressing human ANO6 (variant 5), ionomycin 10 µM, Lact-C2-GFP fluorescence, average of three tests; for inhibition at 0.05 µM / inhibition at 0.1 µM / inhibition at 1 µM: FRT; for inhibition at 0.05 µM: read-out: % Inhibition 50 nM; for inhibition at 0.1 µM: compound 100 nM
In short: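 Cells were pretreated 10 min with compound (50 nM, 100 nM, 1 µM; 1% DMSO), then given 10 µM ionomycin for 10 min. Surface phosphatidylserine was stained with 500 nM Lact-C2-GFP (10 min, 37 °C), fixed and imaged. Inhibition was scaled between untreated (100%) and ionomycin-alone (0%) wells.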

[1] = compound 1 µM, read-out: % Inhibition 1 µM

Structure (SMILES) | inhibition at 0.05 µM (compound 50 nM) [%] | inhibition at 0.1 µM [%] | inhibition at 1 µM [1] [%] | % Inhibition 50 nM (compound 50 nM) | inhibition at 1 µM (read-out: % Inhibition 1 µM, compound 1 µM) [%]
FC(F)(F)c1ccc2nc(-c3cccc(Nc4ccc(-c5ccccn5)cn4)c3)[nH]c2c1 [Example 57, N-{3-[6-(trifluoromethyl)-1H-benzo[d]imidazol-2-yl]phenyl}-[2,3'-bipyridin]-6'-amine] | > 60 | > 60 |  |  | 
FC(F)(F)c1cnc2nc(-c3cccc(Nc4ccc(-c5cccnn5)cc4)c3)[nH]c2c1 [Example 234, N-(4-(pyridazin-3-yl)phenyl)-3-(6-(trifluoromethyl)-1H-imidazo[4,5-b]pyridin-2-yl)aniline] | 30 to 60 |  | > 60 |  | 
c1cc(Nc2ccc(-c3cccnn3)cn2)cc(-c2nc3ccccc3[nH]2)c1 [Example 56, N-[3-(1H-benzo[d]imidazol-2-yl)phenyl]-5-(pyridazin-3-yl)pyridin-2-amine] | 30 to 60 | > 60 |  |  | 
FC(F)(F)c1ccc2nc(-c3ccnc(Nc4ccc(-c5cccnn5)cc4)c3)[nH]c2c1 [Example 261, N-(4-(pyridazin-3-yl)phenyl)-4-(6-(trifluoromethyl)-1H-benzo[d]imidazol-2-yl) pyridin-2-amine] | 30 to 60 |  | > 60 |  | 
FC(F)(F)c1ccc2nc(-c3cncc(Nc4ccc(-c5cccnn5)cc4)c3)[nH]c2c1 [Example 262, N-(4-(pyridazin-3-yl)phenyl)-5-(6-(trifluoromethyl)-1H-benzo[d]imidazol-2-yl)pyridin-3-amine] | > 60 |  |  |  | 
COc1ccc2nc(-c3cccc(Nc4ccc(-c5cccnn5)cc4)c3)[nH]c2c1 [Example 223, 3-(6-methoxy-1H-benzo[d]imidazol-2-yl)-N-(4-(pyridazin-3-yl)phenyl)aniline] | > 60 |  | > 60 |  | 
c1ccc(-c2ccc(Nc3cccc(-c4nc5ccccc5[nH]4)c3)nc2)nc1 [Example 59, N-[3-(1H-benzo[d]imidazol-2-yl)phenyl]-[2,3'-bipyridin]-6'-amine] | > 60 | > 60 |  |  | 
FC(F)(F)c1ccc2nc(-c3cccc(Nc4ccc(-c5ccccc5)cn4)c3)[nH]c2c1 [Example 15, 5-Phenyl-N-{3-[6-(trifluoromethyl)-1H-benzo[d]imidazol-2-yl]phenyl}pyridin-2-amine] | > 60 | > 60 | > 60 |  | 
Fc1cccc(-c2cnc(Nc3cccc(-c4nc5ccc(C(F)(F)F)cc5[nH]4)c3)nc2)c1 [Example 17, 5-(3-Fluorophenyl)-N-{3-[6-(trifluoromethyl)-1H-benzo[d]imidazol-2-yl]phenyl}pyrimidin-2-amine] | > 60 | > 60 | > 60 |  | 
CN1CCN(c2ccc(-c3nc4ccc(C(F)(F)F)cc4[nH]3)cc2Nc2ncc(-c3cccnn3)cn2)CC1 [Example 176, N-(2-(4-methylpiperazin-1-yl)-5-(6-(trifluoromethyl)-lH-benzo[d]imidazol-2-yl)phenyl)-5-(pyridazin-3-yl)pyrimidin-2-amine] |  |  | 30 to 60 |  | 
Fc1ccc2nc(-c3cccc(Nc4ccc(-c5cccnn5)cc4)c3)[nH]c2c1 [Example 25, 3-(6-fluoro-1H-benzo[d]imidazol-2-yl)-N-(4-(pyridazin-3-yl)phenyl)aniline] | > 60 | > 60 | > 60 |  | 
FC(F)(F)c1cc2[nH]c(-c3cccc(Nc4ccc(-c5ccccn5)cn4)c3)nc2cn1 [Example 238, N-(3-(6-(trifluoromethyl)-1H-imidazo [4,5-c]pyridin-2-yl)phenyl)-[2,3'-bipyridin]-6'-amine] | > 60 |  | > 60 |  | 
Cc1cc(Nc2cccc(-c3nc4ccccc4[nH]3)c2)ccc1-c1cccnn1 [Example 204, N-(3-(1H-benzo[d]imidazol-2-yl)phenyl)-3-methyl-4-(pyridazin-3-yl)aniline] |  |  | > 60 |  | 
Fc1ccc2nc(-c3cccc(Nc4ncc(-c5cccnn5)cn4)c3)[nH]c2c1 [Example 51, N-(3-(6-fluoro-1H-benzo[d]imidazol-2-yl)phenyl)-5-(pyridazin-3-yl)pyrimidin-2-amine] |  | > 60 |  | B (30 to 60% inhibition) | 
c1ccc(-c2ccc(Nc3cccc(-c4nc5ccccc5[nH]4)c3)nn2)nc1 [Example 255, N-(3-(1H-benzo[d]imidazol-2-yl)phenyl)-6-(pyridin-2-yl)pyrimidin-3-amine] |  |  |  |  | > 60
Fc1cc2nc(-c3cccc(Nc4ccc(-c5ccccn5)cn4)c3)[nH]c2cc1F [Example 283, N-(3-(5,6-difluoro-1H-benzo[d]imidazol-2-yl)phenyl)-[2,3'-bipyridin] -6'-amine] | > 60 |  | > 60 |  | 
FC(F)(F)Oc1ccc2nc(-c3cccc(Nc4ncc(-c5cccnn5)cn4)c3)[nH]c2c1 [Example 295, 5-(pyridazin-3-yl)-N-(3-(6-(trifluoromethoxy)-1H-benzo[d]imidazol-2-yl)phenyl)pyrimidin-2-amine] | 30 to 60 |  | > 60 |  | 
COc1ccc(-c2ccc(Nc3cccc(-c4nc5ccc(C(F)(F)F)cc5[nH]4)c3)cc2)nn1 [Example 278, N-(4-(6-methoxypyridazin-3-yl)phenyl)-3-(6-(trifluoromethyl)-1H-benzo[d]imidazol-2-yl)aniline] | > 60 |  |  |  | 
Cc1ccc2nc(-c3cccc(Nc4ccc(-c5cccnn5)cc4)c3)[nH]c2c1 [Example 105, 3-(6-methyl-1H-benzo[d]imidazol-2-yl)-N-(4-pyridazin-3-ylphenyl)aniline] | > 60 |  | > 60 |  | 
Fc1cc2[nH]c(-c3cccc(Nc4ncc(-c5ccccn5)cn4)c3)nc2cn1 [Example 286, N-(3-(6-fluoro-1H-imidazo[4,5-c]pyridin-2-yl)phenyl)-5-(pyridin-2-yl)pyrimidin-2-amine] |  |  | > 60 |  | 
Brc1ccc2nc(-c3cccc(Nc4ccc(-c5cccnn5)cc4)c3)[nH]c2c1 [Example 308, 3-(6-bromo-1H-benzo[d]imidazol-2-yl)-N-(4-(pyridazin-3-yl)phenyl)aniline] | > 60 |  | > 60 |  | 
Clc1cc2nc(-c3cccc(Nc4ccc(-c5ccccc5)cn4)c3)[nH]c2cc1Cl [Example 13, N-[3-(5,6-dichloro-1H-benzo[d]imidazol-2-yl)phenyl]-5-phenylpyridin-2-amine] | > 60 | > 60 | > 60 |  | 
Fc1cc2nc(-c3cccc(Nc4ccc(-c5ccccc5)nn4)c3)[nH]c2cc1Br [Example 4, N-[3-(6-bromo-5-fluoro-1H-benzo[d]imidazol-2-yl)phenyl]-6-phenylpyridazin-3-amine] | 30 to 60 | > 60 | > 60 |  | 
FC(F)(F)Oc1ccc2nc(-c3cccc(Nc4ncc(-c5ccccn5)cn4)c3)[nH]c2c1 [Example 118, 5-(2-pyridyl)-N-[3-[6-(trifluoromethoxy)-1H-benzo[d]imidazol-2-yl]phenyl]pyrimidin-2-amine] | > 60 |  | > 60 |  | 
c1cnc(-c2ccc(Nc3cccc(-c4nc5ccccc5[nH]4)c3)nc2)nc1 [Example 69, N-(3-(lH-benzo[d]imidazol-2-yl)phenyl)-5-(pyrimidin-2-yl)pyridin-2-amine] |  | 30 to 60 |  |  | 
FC(F)(F)c1ccc2nc(-c3cccc(Nc4ccc(-c5ccccn5)nn4)c3)[nH]c2c1 [Example 256, 6-(pyridin-2-yl)-N-(3-(6-(trifluoromethyl)-1H-benzo[d]imidazol-2-yl)phenyl)pyridazin-3-amine] |  |  | > 60 |  | 
c1ccc(-c2ccc(Nc3cccc(-c4nc5ccccc5[nH]4)c3)cc2)cc1 [Example 19, N-[3-(1H-benzo[d]imidazol-2-yl)phenyl]-[1,1'-biphenyl]-4-amine] | 30 to 60 | > 60 | > 60 |  | 
